Results reported in PubChem BioAssay (NCI).
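Dose response: 5 concentrations. Exposure: 48 h. Format: 96-well plates. Endpoint: linear interpolation; highest concentration if not reached. TGI denotes the concentration required for complete inhibition of growth.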

Experiments:
Experiment in all cases: growth of human tumour cells (NCI), 48 h
OVCAR-4 ovarian = tested on: OVCAR-4 ovarian
MDA-MB-231 breast = tested on: MDA-MB-231 breast
OVCAR-8 ovarian = tested on: OVCAR-8 ovarian
UACC-257 melanoma = tested on: UACC-257 melanoma
MDA-N = tested on: MDA-N
A549 NSCLC = tested on: A549 NSCLC
TK-10 renal = tested on: TK-10 renal
HCC-2998 colon = tested on: HCC-2998 colon
HT29 colon = tested on: HT29 colon
PC-3 prostate = tested on: PC-3 prostate
KM12 colon = tested on: KM12 colon
U251 CNS = tested on: U251 CNS
786-0 renal = tested on: 786-0 renal
SNB-75 CNS = tested on: SNB-75 CNS
DU-145 prostate = tested on: DU-145 prostate
HCT-116 colon = tested on: HCT-116 colon
ACHN renal = tested on: ACHN renal
SN12C renal = tested on: SN12C renal
IGROV1 ovarian = tested on: IGROV1 ovarian
COLO 205 colon = tested on: COLO 205 colon
NCI-H23 lung = tested on: NCI-H23 lung
SW-620 colon = tested on: SW-620 colon
EKVX NSCLC = tested on: EKVX NSCLC
LOX IMVI melanoma = tested on: LOX IMVI melanoma
T-47D breast = tested on: T-47D breast
SF-539 CNS = tested on: SF-539 CNS
UACC-62 melanoma = tested on: UACC-62 melanoma
SK-MEL-5 melanoma = tested on: SK-MEL-5 melanoma
MOLT-4 leukemia = tested on: MOLT-4 leukemia
NCI-H460 lung = tested on: NCI-H460 lung
SF-295 CNS = tested on: SF-295 CNS
A498 renal = tested on: A498 renal
OVCAR-3 ovarian = tested on: OVCAR-3 ovarian
MDA-MB-435 = tested on: MDA-MB-435
HCT-15 colon = tested on: HCT-15 colon
MCF7 breast = tested on: MCF7 breast
SK-MEL-2 melanoma = tested on: SK-MEL-2 melanoma
SNB-19 CNS = tested on: SNB-19 CNS
RPMI-8226 leukemia = tested on: RPMI-8226 leukemia
HOP-62 NSCLC = tested on: HOP-62 NSCLC
M14 melanoma = tested on: M14 melanoma
HS 578T breast = tested on: HS 578T breast
MALME-3M melanoma = tested on: MALME-3M melanoma
SR leukemia = tested on: SR leukemia
K-562 leukemia = tested on: K-562 leukemia
UO-31 renal = tested on: UO-31 renal
SF-268 CNS = tested on: SF-268 CNS
SK-OV-3 ovarian = tested on: SK-OV-3 ovarian
SK-MEL-28 melanoma = tested on: SK-MEL-28 melanoma
NCI-H226 lung = tested on: NCI-H226 lung
NCI/ADR-RES ovarian = tested on: NCI/ADR-RES ovarian
OVCAR-5 ovarian = tested on: OVCAR-5 ovarian
BT-549 breast = tested on: BT-549 breast
HOP-92 NSCLC = tested on: HOP-92 NSCLC
RXF 393 renal = tested on: RXF 393 renal
HL-60(TB) leukemia = tested on: HL-60(TB) leukemia
CCRF-CEM leukemia = tested on: CCRF-CEM leukemia
CAKI-1 renal = tested on: CAKI-1 renal
NCI-H522 lung = tested on: NCI-H522 lung

## CN(C)CCNC(=O)c1cccc2c(NC(CCCN=C(N)N)C(=O)O)c3ccccc3[n+](C)c12 (centres undefined)
OVCAR-4 ovarian
  TGI: > 100 µM
MDA-MB-231 breast
  TGI: > 100 µM
OVCAR-8 ovarian
  TGI: > 100 µM
UACC-257 melanoma
  TGI: > 100 µM
MDA-N
  TGI: > 100 µM
A549 NSCLC
  TGI: > 100 µM
TK-10 renal
  TGI: > 100 µM
HCC-2998 colon
  TGI: > 100 µM
HT29 colon
  TGI: > 100 µM
PC-3 prostate
  TGI: > 100 µM
KM12 colon
  TGI: > 100 µM
U251 CNS
  TGI: > 100 µM
786-0 renal
  TGI: > 100 µM
SNB-75 CNS
  TGI: > 100 µM
DU-145 prostate
  TGI: > 100 µM
HCT-116 colon
  TGI: > 100 µM
ACHN renal
  TGI: > 100 µM
SN12C renal
  TGI: > 100 µM
IGROV1 ovarian
  TGI: > 100 µM
COLO 205 colon
  TGI: > 100 µM
NCI-H23 lung
  TGI: > 100 µM
SW-620 colon
  TGI: > 100 µM
EKVX NSCLC
  TGI: > 100 µM
LOX IMVI melanoma
  TGI: > 100 µM
T-47D breast
  TGI: > 100 µM
SF-539 CNS
  TGI: > 100 µM
UACC-62 melanoma
  TGI: > 100 µM
SK-MEL-5 melanoma
  TGI: > 100 µM
MOLT-4 leukemia
  TGI: > 100 µM
NCI-H460 lung
  TGI: > 100 µM
SF-295 CNS
  TGI: > 100 µM
A498 renal
  TGI: > 100 µM
OVCAR-3 ovarian
  TGI: > 100 µM
MDA-MB-435
  TGI: > 100 µM
HCT-15 colon
  TGI: > 100 µM
MCF7 breast
  TGI: > 100 µM
SK-MEL-2 melanoma
  TGI: > 100 µM
SNB-19 CNS
  TGI: > 100 µM
RPMI-8226 leukemia
  TGI: > 100 µM
HOP-62 NSCLC
  TGI: > 100 µM
M14 melanoma
  TGI: > 100 µM
HS 578T breast
  TGI: > 100 µM
MALME-3M melanoma
  TGI: > 100 µM
SR leukemia
  TGI: > 100 µM
K-562 leukemia
  TGI: > 100 µM
UO-31 renal
  TGI: > 100 µM
SF-268 CNS
  TGI: 92.6 µM
SK-OV-3 ovarian
  TGI: > 100 µM
SK-MEL-28 melanoma
  TGI: > 100 µM
NCI-H226 lung
  TGI: 94.5 µM
NCI/ADR-RES ovarian
  TGI: 80.9 µM
OVCAR-5 ovarian
  TGI: > 100 µM
BT-549 breast
  TGI: > 100 µM

## CC(C)(O)C1CC[C@]2(C)CC[C@]3(C)[C@H](CC[C@@H]4[C@@]5(C)CC[C@H](O)C(C)(C)[C@@H]5CC[C@]43C)[C@@H]12 (some centres undefined)
OVCAR-4 ovarian
  TGI: 78.3 µM
MDA-MB-231 breast
  TGI: > 100 µM
OVCAR-8 ovarian
  TGI: > 100 µM
HOP-92 NSCLC
  TGI: 44.1 µM
UACC-257 melanoma
  TGI: 50.2 µM
MDA-N
  TGI: > 100 µM
A549 NSCLC
  TGI: > 100 µM
TK-10 renal
  TGI: 53.3 µM
HCC-2998 colon
  TGI: 51.9 µM
HT29 colon
  TGI: > 100 µM
PC-3 prostate
  TGI: > 100 µM
KM12 colon
  TGI: 89.3 µM
U251 CNS
  TGI: > 100 µM
786-0 renal
  TGI: 78.1 µM
SNB-75 CNS
  TGI: 45.7 µM
DU-145 prostate
  TGI: 57.9 µM
HCT-116 colon
  TGI: 59.4 µM
ACHN renal
  TGI: 71.3 µM
SN12C renal
  TGI: > 100 µM
IGROV1 ovarian
  TGI: 85.8 µM
COLO 205 colon
  TGI: 92.2 µM
NCI-H23 lung
  TGI: > 100 µM
EKVX NSCLC
  TGI: 44.5 µM
RXF 393 renal
  TGI: > 100 µM
T-47D breast
  TGI: 66.2 µM
SF-539 CNS
  TGI: 55.4 µM
UACC-62 melanoma
  TGI: > 100 µM
HL-60(TB) leukemia
  TGI: > 100 µM
SK-MEL-5 melanoma
  TGI: > 100 µM
MOLT-4 leukemia
  TGI: > 100 µM
NCI-H460 lung
  TGI: > 100 µM
SF-295 CNS
  TGI: 57.6 µM
CCRF-CEM leukemia
  TGI: > 100 µM
OVCAR-3 ovarian
  TGI: 50.7 µM
MDA-MB-435
  TGI: > 100 µM
HCT-15 colon
  TGI: > 100 µM
MCF7 breast
  TGI: > 100 µM
SK-MEL-2 melanoma
  TGI: 62.5 µM
SNB-19 CNS
  TGI: > 100 µM
RPMI-8226 leukemia
  TGI: > 100 µM
CAKI-1 renal
  TGI: 45.6 µM
HOP-62 NSCLC
  TGI: 84.3 µM
M14 melanoma
  TGI: 95.4 µM
HS 578T breast
  TGI: 68.1 µM
MALME-3M melanoma
  TGI: 57.7 µM
SR leukemia
  TGI: > 100 µM
K-562 leukemia
  TGI: > 100 µM
UO-31 renal
  TGI: > 100 µM
SF-268 CNS
  TGI: > 100 µM
SK-OV-3 ovarian
  TGI: 49.3 µM
SK-MEL-28 melanoma
  TGI: 67.7 µM
NCI-H226 lung
  TGI: > 100 µM
NCI/ADR-RES ovarian
  TGI: 82.4 µM
OVCAR-5 ovarian
  TGI: 75.9 µM
BT-549 breast
  TGI: 60.9 µM
NCI-H522 lung
  TGI: 73.2 µM

## S=C(NCCc1ccccn1)c1nc[nH]c1C(=S)NCCc1ccccn1
OVCAR-4 ovarian
  TGI: > 100 µM
MDA-MB-231 breast
  TGI: > 100 µM
OVCAR-8 ovarian
  TGI: 82.4 µM
HOP-92 NSCLC
  TGI: > 100 µM
UACC-257 melanoma
  TGI: > 100 µM
MDA-N
  TGI: > 100 µM
A549 NSCLC
  TGI: > 100 µM
TK-10 renal
  TGI: > 100 µM
HCC-2998 colon
  TGI: > 100 µM
HT29 colon
  TGI: > 100 µM
PC-3 prostate
  TGI: > 100 µM
KM12 colon
  TGI: > 100 µM
U251 CNS
  TGI: > 100 µM
786-0 renal
  TGI: > 100 µM
SNB-75 CNS
  TGI: 83.3 µM
DU-145 prostate
  TGI: > 100 µM
HCT-116 colon
  TGI: > 100 µM
ACHN renal
  TGI: > 100 µM
SN12C renal
  TGI: > 100 µM
IGROV1 ovarian
  TGI: > 100 µM
COLO 205 colon
  TGI: > 100 µM
NCI-H23 lung
  TGI: > 100 µM
SW-620 colon
  TGI: > 100 µM
EKVX NSCLC
  TGI: > 100 µM
RXF 393 renal
  TGI: 87.9 µM
LOX IMVI melanoma
  TGI: 45.5 µM
T-47D breast
  TGI: 60.6 µM
UACC-62 melanoma
  TGI: 56.2 µM
SK-MEL-5 melanoma
  TGI: > 100 µM
NCI-H460 lung
  TGI: 64.6 µM
SF-295 CNS
  TGI: > 100 µM
CCRF-CEM leukemia
  TGI: 81.1 µM
A498 renal
  TGI: > 100 µM
OVCAR-3 ovarian
  TGI: > 100 µM
MDA-MB-435
  TGI: > 100 µM
HCT-15 colon
  TGI: > 100 µM
MCF7 breast
  TGI: > 100 µM
SK-MEL-2 melanoma
  TGI: > 100 µM
SNB-19 CNS
  TGI: > 100 µM
RPMI-8226 leukemia
  TGI: > 100 µM
CAKI-1 renal
  TGI: > 100 µM
HOP-62 NSCLC
  TGI: > 100 µM
M14 melanoma
  TGI: > 100 µM
HS 578T breast
  TGI: 68.1 µM
MALME-3M melanoma
  TGI: > 100 µM
SR leukemia
  TGI: > 100 µM
K-562 leukemia
  TGI: > 100 µM
UO-31 renal
  TGI: > 100 µM
SF-268 CNS
  TGI: > 100 µM
SK-OV-3 ovarian
  TGI: > 100 µM
SK-MEL-28 melanoma
  TGI: > 100 µM
NCI-H226 lung
  TGI: > 100 µM
NCI/ADR-RES ovarian
  TGI: 65.1 µM
OVCAR-5 ovarian
  TGI: > 100 µM
BT-549 breast
  TGI: > 100 µM
